In patent publication US20050256037A1, “Antibacterial amide macrocyles” (Bayer HealthCare AG, priority 2003, published 2005) one finds IC50 and MIC data, which are given here for three compounds.

The structures appear in SMILES notation. Converted amounts (≈) assume the structure as drawn. Counter-ions that a name gives are not always drawn. Like-named read-outs stand apart in the source and are kept apart here.

For assay [1], the target named is S. aureus 133 Translation. As to the kind of experiment: S. aureus in vitro transcription-translation assay (S30 extract, firefly luciferase reporter). The format is biochemical. The source says:
In vitro Transcription-Translation with S. aureus Extracts
Construction of an S. aureus Luciferase Reporter Plasmid
A reporter plasmid which can be used in an in vitro transcription-translation assay from S. aureus is constructed by using the plasmid pBESTluc (Promega Corporation, USA). The E. coli tac promoter present in this plasmid in front of the firefly luciferase is replaced by the capA1 promoter with appropriate Shine-Dalgarno sequence from S. aureus. The primers CAPFor 5′-CGGCCAAGCTTACTCGGAT-[…] […]-3′ and CAPRev 5′-[…]-3′ are used for this. The primer CAPFor contains the capA1 promoter, the ribosome binding site and the 5′ region of the luciferase gene. After PCR using pBESTluc as template it is possible to isolate a PCR product which contains the firefly luciferase gene with the fused capA1 promoter. This is, after restriction with ClaI and HindIII, ligated into the vector pBESTluc which has likewise been digested with ClaI and HindIII. The resulting plasmid pla is able to replicate in E. coli and be used as template in the S. aureus in vitro transcription-traslation assay.
Preparation of S30 Extracts from S. aureus
Six litres of BHI medium are inoculated with a 250 ml overnight culture of an S. aureus strain and allowed to grow at 37° C. until the OD600 run is 2-4. The cells are harvested by centrifugation and washed in 500 ml of cold buffer A (10 mM Tris acetate, pH 8.0, 14 mM Magnesium acetate, 1 mM DTT, 1 M KCl). After renewed centrifugation, the cells are washed in 250 ml of cold buffer A with 50 mM KCl, and the resulting pellets are frozen at −20° C. for 60 min. The pellets are thawed on ice in 30 to 60 min and taken up to a total volume of 99 ml in buffer B (10 mM Tris acetate, pH 8.0, 20 mM Magnesium acetate, 1 mM DTT, 50.mM KCl). 1.5 ml portions of lysostaphin (0.8 mg/ml) in buffer B are introduced into 3 precooled centrifuge cups and each mixed with 33 ml of the cell suspension. The samples are incubated at 37° C., shaking occasionally, for 45 to 60 min, before 150 μl of a 0.5 M DTT solution are added. The lysed cells are centrifuged at 30 000×g and 4° C. for 30 min. The cell pellet is taken up in buffer B and then centrifuged again under the same conditions, and the collected supernatants are combined. The supernatants are centrifuged again under the same conditions, and 0.25 volume of buffer C (670 mM Tris acetate, pH 8.0, 20 mM Magnesium acetate, 7 mM Na3 phosphoenolpyruvate, 7 mM DTT, 5.5 mM ATP, 70 μM amino acids (complete from Promega), 75 μg of pyruvate kinase (Sigma, Germany)/ml are added to the upper ⅔ of the supernatant. The samples are incubated at 37° C. for 30 min. The supernatants are dialysed against 2 l of dialysis buffer (10 mM Tris acetate, pH 8.0, 14 mM Magnesium acetate, 1 mM DTT, 60 mM Potassium acetate) in a dialysis tube with a 3500 Da cut-off with one buffer change at 4° C. overnight. The dialysate is concentrated to a protein concentration of about 10 mg/ml by covering the dialysis tube with cold PEG 8000 powder (Sigma, Germany) at 4° C. The S30 extracts can be stored in aliquots at −70° C.
Determination of the IC50 in the S. aureus in vitro Transcription-Translation Assay Inhibition of protein biosynthesis of the compounds can be shown in an in vitro transcription-translation assay. The assay is based on the cell-free transcription and translation of firefly luciferase using the reporter plasmid pla as template and cell-free S30 extracts obtained from S. aureus. The activity of the resulting luciferase can be detected by luminescence measurement.
The amount of S30 extract or plasmid pla to be employed must be tested anew for each preparation in order to ensure an optimal concentration in the assay. 3 μl of the substance to be tested, dissolved in 5% DMSO, are introduced into an MTP. Then 10 μl of a suitably concentrated plasmid solution pla are added. […]

The next assay concerns S. aureus E33. As to the kind of experiment: MIC, liquid dilution test in minimal medium (96-well microtitre plate). The format is cell-based. Particulars: Staphylococcus aureus. As for the experimental part:
(§1) Determination of the Minimum Inhibitory Concentration (MIC)
(§2) The minimum inhibitory concentration (MIC) is the minimum concentration of an antibiotic with which the growth of a test microbe is inhibited over 18-24 h. The inhibitor concentration can in these cases be determined by standard microbiological methods (see, for example, The National Committee for Clinical Laboratory Standards. Methods for dilution antimicrobial susceptibility tests for bacteria that grow aerobically; approved standard-fifth edition. NCCLS document M7-A5 [ISBN 1-56238-394-9]. NCCLS, 940 West Valley Road, Suite 1400, Wayne, Pa. 19087-1898 USA, 2000). The MIC of the compounds of the invention is determined in the liquid dilution test on the 96-well microtitre plate scale. The bacterial microbes are cultivated in a minimal medium (18.5 mM Na2HPO4, 5.7 mM KH2PO4, 9.3 mM NH4Cl, 2.8 mM MgSO4, 17.1 mM NaCl, 0.033 μg/ml thiamine hydrochloride, 1.2 μg/ml nicotinic acid, 0.003 μg/ml biotin, 1% glucose, 25 μg/ml of each proteinogenic amino acid with the exception of phenylalanine; [H.-P. Kroll; unpublished]) with addition of 0.4% BH broth (test medium). In the case of Enterococcus faecium L4001, heat-inactivated fetal calf serum (FCS; GibcoBRL, Germany) is added to the test medium in a final concentration of 10%. Overnight cultures of the test microbes are diluted to an OD578 of 0.001 (to 0.01 in the case of enterococci) in fresh test medium, and incubated 1:1 with dilutions of the test substances (1:2 dilution steps) in test medium (200 μl final volume). The cultures are incubated at 37° C. for 18-24 hours; enterococci in the presence of 5% CO2.
(§3) The lowest substance concentration in each case at which bacterial growth was no longer visible is defined as the MIC. […] The compounds show a graded antibacterial effect against most of the test microbes.

The next assay deals with E. faecium L4001. Described as above. The format is cell-based. The conditions noted are these: Enterococcus faecium. How it is done:
as §1, §2, §3

Another assay concerns S. aureus T17. The description is as above. Particulars: Staphylococcus aureus, T17, read-out: MIC S. aureus T17. The format is cell-based. As for the experimental part: as §1, §2, §3
The S. aureus strain T17 is isolated in vivo. CFW1 mice are infected intraperitoneally with 4×10^7 S. aureus 133 cells per mouse. 0.5 h after the infection, the animals are treated intravenously with 50 mg/kg biphenomycin B. The kidneys are removed from the surviving animals on day 3 after the infection. After homogenization of the organs, the homogenates are plated out as described for RN4220Bi^R on antibiotic-free and antibiotic-containing agar plates and incubated at 37° C. overnight. […] About 20 of these colonies are tested for the biphenomycin B MIC, and a colony with an MIC of >50 μM is selected for further cultivation, and the strain is referred to a T17.

Where [2] appears, read: E33, read-out: MIC S. aureus E33.
The mark [3] stands for this setting: L4001, read-out: MIC E. faecium L4001.

As for `NCCC[C@@H]1NC(=O)[C@@H](N)Cc2cc(ccc2O)-c2ccc(O)c(c2)C[C@@H](C(=O)NCCN)NC1=O` [Example 6, (8S,11S,14S)-14-amino-N-(2-aminoethyl)-11-(3-aminopropyl)-5,17-dihydroxy-10,1 3-dioxo-9,12-diazatricyclo[14.3.1.1^2,6]henicosa-1(20),2(21),3,5,16,18-hexaene-8-carboxamide], the concentration for half-maximal inhibition (IC50) in assay [1] (Table A) and in assay [1] (Table B) was 500 nM throughout. Moreover, the MIC in the assay on S. aureus E33 (setting [2]) was 3.1 µM (≈ 1.55 µg/mL); in the assay on E. faecium L4001 (setting [3]), over 50 µM; in the assay on S. aureus T17, 3.1 µM (≈ 1.55 µg/mL).

`CN1C(=O)[C@H](C[C@@H](O)CN)NC(=O)[C@@H](N)Cc2cc(ccc2O)-c2ccc(O)c(c2)C[C@H]1C(=O)NCCN` [Example 1, (8S,11S,14S)-14-amino-N-(2-aminoethyl)-11-[(2R)-3-amino-2-hydroxypropyl]-5,17-dihydroxy-9-methyl-10,13-dioxo-9,12-diazatricyclo[14.3.1.1.^2,6]henicosa-1(20),2(21),3,5,16,18-hexaene-8-carboxamide, trihydrochloride]: the half-maximal inhibitory concentration (IC50) in assay [1] (Table A) and in assay [1] (Table B) was 100 nM each time. Also, the minimum inhibitory concentration (MIC) was 3.1 µM in the assay with S. aureus E33 (setting [2]), 12.5 µM in the assay on E. faecium L4001 (setting [3]) and 3.1 µM in the assay on S. aureus T17.

Regarding `NC[C@H](O)C[C@@H]1NC(=O)[C@@H](N)Cc2cc(ccc2O)-c2ccc(O)c(c2)C[C@@H](C(=O)O)NC1=O` [Example 20A, 14(S)-Amino-1(S)-(3-amino-2(R)-hydroxypropyl)-5,17-dihydroxy-10,13-dioxo-9,12-diazatricyclo[14.3.1.1^2,6]henicosa-1(19),2,4,6(21),16(20),17-hexaene-8(S)-carboxylic acid dihydrochloride, reference compound], the IC50 in assay [1] (Table A) and in assay [1] (Table B) was 1500 nM in each case. Besides, the minimum inhibitory concentration (MIC) was 0.1 µM in the assay on S. aureus E33 (E33, Table A, liquid dilution, 18-24 h, 37° C., read-out: MIC S. aureus E33); over 25 µM in the assay on E. faecium L4001 (L4001, Table A, liquid dilution, 10% FCS, 5% CO2, read-out: MIC E. faecium L4001); over 25 µM in the assay on S. aureus T17.
